Data on 18 compounds can be found in ChEMBL document CHEMBL3856198, “Synthesis of novel 17-(4'-formyl)pyrazolylandrosta-5,16-dienes and their derivatives as potent 17α-hydroxylase/C17,20-lyase inhibitors or antiproliferative agents depending on the substitution pattern of the heteroring” (Eur J Med Chem, 2016).

Holding throughout (assay type): functional
Experiment [1] can be described thus: Growth inhibition of human MCF7 cells at 10 uM after 72 hrs by MTT assay. Particulars: MCF7, 72 h, read-out: GI. (Tetrazolium dyes change colour on reduction, which living cells bring about.)
Experiment [2] is described as follows: Growth inhibition of human T47D cells at 30 uM after 72 hrs by MTT assay. The conditions noted are these: read-out: GI.
Experiment [3] in a line: Growth inhibition of human MCF7 cells at 30 uM after 72 hrs by MTT assay. The conditions noted are these: MCF7, 72 h, read-out: GI.
Experiment [4] is described as follows: Growth inhibition of human T47D cells at 10 uM after 72 hrs by MTT assay. The conditions noted are these: read-out: GI.
Experiment [5] in a line: Growth inhibition of human MDA-MB-361 cells at 30 uM after 72 hrs by MTT assay. Particulars: MDA-MB-361, 72 h, read-out: GI.
Experiment [6] is described as follows: Growth inhibition of human MDA-MB-361 cells at 10 uM after 72 hrs by MTT assay. Particulars: MDA-MB-361, 72 h, read-out: GI.
Experiment [7] in a line: Growth inhibition of human MDA-MB-231 cells at 30 uM after 72 hrs by MTT assay. The conditions noted are these: MDA-MB-231, 72 h, read-out: GI.
Experiment [8] is described as follows: Growth inhibition of human MDA-MB-231 cells at 10 uM after 72 hrs by MTT assay. The conditions noted are these: MDA-MB-231, 72 h, read-out: GI.

In the case of `CC(=O)O[C@H]1CC[C@@]2(C)C(=CC[C@@H]3[C@@H]2CC[C@]2(C)C(c4nn(-c5ccc(C)cc5)cc4C=O)=CC[C@@H]32)C1`, the inhibition of growth at 10 µM in experiment [1] is 24.6%; in experiment [4], 37.2%; in experiment [6], below 20%; in experiment [8], below 20%. In addition, the inhibition of growth at 30 µM in experiment [2] was found to be 50.8%; in experiment [3], 44.4%; in experiment [5], 34.9%; in experiment [7], 27.2%.
For `CC(=O)O[C@H]1CC[C@@]2(C)C(=CC[C@@H]3[C@@H]2CC[C@]2(C)C(c4nn(-c5ccc(Cl)cc5)cc4C=O)=CC[C@@H]32)C1`, the inhibition of growth at 10 µM is 43.6% in experiment [1], 44.8% in experiment [4], 32.1% in experiment [6] and below 20% in experiment [8]. Also, the inhibition of growth at 30 µM was 62.8% in experiment [2], 65.2% in experiment [3], 63.7% in experiment [5] and 56.2% in experiment [7].
Take `C[C@]12CC[C@H](O)CC1=CC[C@@H]1[C@@H]2CC[C@]2(C)C(c3nn(-c4ccc([N+](=O)[O-])cc4)cc3C=O)=CC[C@@H]12`: the inhibition of growth at 10 µM worked out at 64.8% in experiment [1], 72.5% in experiment [4], 63.9% in experiment [6] and 51.8% in experiment [8]. For the same compound, the inhibition of growth at 30 µM in experiment [2] was determined as 79.6%; in experiment [3], 75.1%; in experiment [5], 80%; in experiment [7] it was 77%.
Regarding `Cc1ccc(-n2cc(CO)c(C3=CC[C@H]4[C@@H]5CC=C6C[C@@H](O)CC[C@]6(C)[C@H]5CC[C@]34C)n2)cc1`, the inhibition of growth at 10 µM in experiment [1] is 64.8%; in experiment [4], 68.7%; in experiment [6], 73.5%; in experiment [8] it was 72.4%. For the same compound, the inhibition of growth at 30 µM in experiment [2] was found to be 90.7%; in experiment [3], 83.3%; in experiment [5], 89.4%; in experiment [7], 96.6%.
In the case of `Cc1ccc(-n2cc(C=O)c(C3=CC[C@H]4[C@@H]5CC=C6C[C@@H](O)CC[C@]6(C)[C@H]5CC[C@]34C)n2)cc1`, the inhibition of growth at 10 µM is 47.8% in experiment [1], 47.2% in experiment [4], 57.3% in experiment [6] and 58.9% in experiment [8]. Besides, the inhibition of growth at 30 µM was found to be 74.8% in experiment [2], 72.6% in experiment [3], 75.8% in experiment [5] and 76.9% in experiment [7].
In the case of `C[C@]12CC[C@H](O)CC1=CC[C@@H]1[C@@H]2CC[C@]2(C)C(c3nn(-c4ccc(Br)cc4)cc3C=O)=CC[C@@H]12`, the inhibition of growth at 10 µM in experiment [1] was 22.2%; in experiment [4] it was 36.2%; in experiment [6] it was 48.1%; in experiment [8] it was below 20%. In addition, the inhibition of growth at 30 µM came out at 70.7% in experiment [2], 61% in experiment [3], 60.4% in experiment [5] and 55.8% in experiment [7].
Consider `C[C@]12CC[C@H](O)CC1=CC[C@@H]1[C@@H]2CC[C@]2(C)C(c3nn(-c4ccc(C#N)cc4)cc3C=O)=CC[C@@H]12`, for which the inhibition of growth at 10 µM was 64.4% in experiment [1], 66.9% in experiment [4], 60.8% in experiment [6] and 49.1% in experiment [8]. Further, the inhibition of growth at 30 µM was found to be 86.4% in experiment [2], 80.2% in experiment [3], 74.3% in experiment [5] and 93.1% in experiment [7].
Consider `Cn1cc(CO)c(C2=CC[C@H]3[C@@H]4CC=C5C[C@@H](O)CC[C@]5(C)[C@H]4CC[C@]23C)n1`, for which the inhibition of growth at 10 µM is below 20% in experiment [1], 37.4% in experiment [4], 32.5% in experiment [6] and below 20% in experiment [8]. In addition, the inhibition of growth at 30 µM was 56.4% in experiment [2], 33.8% in experiment [3], 47.1% in experiment [5] and 43.6% in experiment [7].
Turning to `Cn1cc(C=O)c(C2=CC[C@H]3[C@@H]4CC=C5C[C@@H](O)CC[C@]5(C)[C@H]4CC[C@]23C)n1`, the inhibition of growth at 10 µM was 42.2% in experiment [1], 62% in experiment [4], 62.1% in experiment [6] and 86.8% in experiment [8]. Moreover, the inhibition of growth at 30 µM worked out at 70.4% in experiment [2], 48.6% in experiment [3], 70% in experiment [5] and 93.4% in experiment [7].
As to `CC(=O)O[C@H]1CC[C@@]2(C)C(=CC[C@@H]3[C@@H]2CC[C@]2(C)C(c4nn(C)cc4C#N)=CC[C@@H]32)C1`, the inhibition of growth at 10 µM in experiment [1] was 41.8%; in experiment [4], 21.7%; in experiment [6] it was 30.8%; in experiment [8], 30.5%. Moreover, the inhibition of growth at 30 µM amounted to 60.4% in experiment [2], 50.3% in experiment [3], 53.1% in experiment [5] and 34.9% in experiment [7].
With `CC(=O)O[C@H]1CC[C@@]2(C)C(=CC[C@@H]3[C@@H]2CC[C@]2(C)C(c4n[nH]cc4C=O)=CC[C@@H]32)C1`, the inhibition of growth at 10 µM in experiment [1], in experiment [4], in experiment [6] and in experiment [8] was below 20% each time. The inhibition of growth at 30 µM in experiment [2] was 63.3%; in experiment [3], 83.5%; in experiment [5], 64.2%; in experiment [7], below 20%.
For the compound `CC(=O)O[C@H]1CC[C@@]2(C)C(=CC[C@@H]3[C@@H]2CC[C@]2(C)C(c4nn(-c5ccc([N+](=O)[O-])cc5)cc4C=O)=CC[C@@H]32)C1`, the inhibition of growth at 10 µM in experiment [1], in experiment [4], in experiment [6] and in experiment [8] was below 20% each time. Besides, the inhibition of growth at 30 µM is 62.8% in experiment [2], 51.9% in experiment [3], 56.2% in experiment [5] and 22.7% in experiment [7].
For `C[C@]12CC[C@H](O)CC1=CC[C@@H]1[C@@H]2CC[C@]2(C)C(c3nn(-c4ccc(Cl)cc4)cc3C=O)=CC[C@@H]12`, the inhibition of growth at 10 µM in experiment [1] is 32.1%; in experiment [4], 43.6%; in experiment [6], 48.4%; in experiment [8] it was below 20%. For the same compound, the inhibition of growth at 30 µM worked out at 68.4% in experiment [2], 55.7% in experiment [3], 60.5% in experiment [5] and 41.1% in experiment [7].
Turning to `CC(=O)O[C@H]1CC[C@@]2(C)C(=CC[C@@H]3[C@@H]2CC[C@]2(C)C(c4nn(-c5ccc(Br)cc5)cc4C=O)=CC[C@@H]32)C1`, the inhibition of growth at 10 µM is 41.2% in experiment [1], 51.4% in experiment [4], 33.8% in experiment [6] and 21.7% in experiment [8]. The inhibition of growth at 30 µM was 63.6% in experiment [2], 60.6% in experiment [3], 55.1% in experiment [5] and 51.9% in experiment [7].
On to `COc1ccc(-n2cc(C=O)c(C3=CC[C@H]4[C@@H]5CC=C6C[C@@H](OC(C)=O)CC[C@]6(C)[C@H]5CC[C@]34C)n2)cc1`, for which the inhibition of growth at 10 µM in experiment [1] is 43.8%; in experiment [4], 33.9%; in experiment [6], 32.8%; in experiment [8], below 20%. Further, the inhibition of growth at 30 µM was 69.1% in experiment [2], 77.7% in experiment [3], 66.7% in experiment [5] and 54.4% in experiment [7].
In the case of `CC(=O)O[C@H]1CC[C@@]2(C)C(=CC[C@@H]3[C@@H]2CC[C@]2(C)C(c4nn(C)cc4C=O)=CC[C@@H]32)C1`, the inhibition of growth at 10 µM in experiment [1] was 30.9%; in experiment [4], below 20%; in experiment [6], below 20%; in experiment [8], below 20%. Besides, the inhibition of growth at 30 µM in experiment [2] is 65.2%; in experiment [3], 61.9%; in experiment [5], 55.6%; in experiment [7], 26.2%.
As to `COc1ccc(-n2cc(CO)c(C3=CC[C@H]4[C@@H]5CC=C6C[C@@H](O)CC[C@]6(C)[C@H]5CC[C@]34C)n2)cc1`, the inhibition of growth at 10 µM in experiment [1] was found to be 51.8%; in experiment [4] it was 62.2%; in experiment [6] it was 64.7%; in experiment [8] it was 69.3%. Also, the inhibition of growth at 30 µM in experiment [2] is 79.6%; in experiment [3], 75.5%; in experiment [5], 86.7%; in experiment [7] it was 92.9%.
As to `CC(=O)O[C@H]1CC[C@@]2(C)C(=CC[C@@H]3[C@@H]2CC[C@]2(C)C(c4nn(-c5ccc(C#N)cc5)cc4C=O)=CC[C@@H]32)C1`, the inhibition of growth at 10 µM in experiment [1] stood at 62.2%; in experiment [4], 60.4%; in experiment [6], 58.9%; in experiment [8] it was 43%. For the same compound, the inhibition of growth at 30 µM in experiment [2] came out at 83.6%; in experiment [3], 85.3%; in experiment [5] it was 80.4%; in experiment [7], 84.5%.
